Laboratory results from ChEMBL document CHEMBL3991601, “The target landscape of clinical kinase drugs” (Science, 2017).
pKd: −log10 of the molar value. Active and inactive are the calls of the source. For most assays here, no stated cut-off is given here; in the data, actives have a measured Kd and inactives only a lower limit.

What was measured:
[1] = molecular target: STE20-like serine/threonine-protein kinase (Homo sapiens, UniProt Q9H2G2)
[2] = molecular target: Mitogen-activated protein kinase 10 (Homo sapiens, UniProt P53779)
Mitogen-activated protein kinase 10, sequence (P53779 whole entry): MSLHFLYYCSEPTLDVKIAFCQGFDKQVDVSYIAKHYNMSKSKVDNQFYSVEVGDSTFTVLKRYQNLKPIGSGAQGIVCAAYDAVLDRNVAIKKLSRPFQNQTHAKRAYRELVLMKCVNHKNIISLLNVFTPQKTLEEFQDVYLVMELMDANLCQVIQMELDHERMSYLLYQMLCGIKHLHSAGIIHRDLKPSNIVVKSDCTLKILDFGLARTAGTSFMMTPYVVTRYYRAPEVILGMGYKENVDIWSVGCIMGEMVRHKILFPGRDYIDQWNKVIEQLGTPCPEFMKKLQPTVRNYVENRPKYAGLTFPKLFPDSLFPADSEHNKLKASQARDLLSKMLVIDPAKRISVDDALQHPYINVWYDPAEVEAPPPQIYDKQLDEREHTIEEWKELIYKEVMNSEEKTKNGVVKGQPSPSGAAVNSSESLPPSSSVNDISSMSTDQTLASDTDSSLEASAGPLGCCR

[3] = molecular target: T1, ATP-dependent RNA helicase DHX30 (Homo sapiens, UniProt Q7L2E3)
T1 sequence (Q7L2E3 whole entry): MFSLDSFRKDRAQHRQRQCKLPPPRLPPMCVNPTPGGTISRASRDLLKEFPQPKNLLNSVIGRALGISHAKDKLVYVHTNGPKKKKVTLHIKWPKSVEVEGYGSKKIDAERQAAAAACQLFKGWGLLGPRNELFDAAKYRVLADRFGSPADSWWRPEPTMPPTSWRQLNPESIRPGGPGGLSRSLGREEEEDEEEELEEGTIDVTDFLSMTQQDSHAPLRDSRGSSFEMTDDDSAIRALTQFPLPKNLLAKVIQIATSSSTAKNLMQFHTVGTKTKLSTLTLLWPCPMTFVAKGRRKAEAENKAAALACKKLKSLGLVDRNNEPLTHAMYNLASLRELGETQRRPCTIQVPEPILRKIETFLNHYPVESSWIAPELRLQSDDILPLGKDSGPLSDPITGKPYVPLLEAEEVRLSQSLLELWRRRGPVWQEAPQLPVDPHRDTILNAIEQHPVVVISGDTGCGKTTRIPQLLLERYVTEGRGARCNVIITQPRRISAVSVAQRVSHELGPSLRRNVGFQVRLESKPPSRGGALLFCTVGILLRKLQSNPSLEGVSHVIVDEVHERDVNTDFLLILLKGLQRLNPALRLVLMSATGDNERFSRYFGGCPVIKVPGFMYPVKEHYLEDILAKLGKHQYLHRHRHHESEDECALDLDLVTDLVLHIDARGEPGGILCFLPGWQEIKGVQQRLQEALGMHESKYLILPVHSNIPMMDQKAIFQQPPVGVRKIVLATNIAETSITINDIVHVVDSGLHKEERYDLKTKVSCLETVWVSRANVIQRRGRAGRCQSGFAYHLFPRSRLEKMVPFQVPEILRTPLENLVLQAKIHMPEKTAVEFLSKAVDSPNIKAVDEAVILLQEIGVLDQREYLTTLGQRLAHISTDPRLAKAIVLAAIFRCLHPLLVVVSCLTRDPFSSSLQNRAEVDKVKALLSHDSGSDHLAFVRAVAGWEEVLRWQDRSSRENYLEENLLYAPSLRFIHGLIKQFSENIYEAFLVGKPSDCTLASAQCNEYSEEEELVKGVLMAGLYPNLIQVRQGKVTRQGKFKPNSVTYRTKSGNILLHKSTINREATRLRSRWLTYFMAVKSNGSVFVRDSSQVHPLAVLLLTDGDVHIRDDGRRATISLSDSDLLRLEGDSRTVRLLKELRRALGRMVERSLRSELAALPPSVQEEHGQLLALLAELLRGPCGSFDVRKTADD

[4] = molecular target: T2, Non-receptor tyrosine-protein kinase TNK1 (Homo sapiens, UniProt Q13470)
T2 sequence (Q13470 whole entry): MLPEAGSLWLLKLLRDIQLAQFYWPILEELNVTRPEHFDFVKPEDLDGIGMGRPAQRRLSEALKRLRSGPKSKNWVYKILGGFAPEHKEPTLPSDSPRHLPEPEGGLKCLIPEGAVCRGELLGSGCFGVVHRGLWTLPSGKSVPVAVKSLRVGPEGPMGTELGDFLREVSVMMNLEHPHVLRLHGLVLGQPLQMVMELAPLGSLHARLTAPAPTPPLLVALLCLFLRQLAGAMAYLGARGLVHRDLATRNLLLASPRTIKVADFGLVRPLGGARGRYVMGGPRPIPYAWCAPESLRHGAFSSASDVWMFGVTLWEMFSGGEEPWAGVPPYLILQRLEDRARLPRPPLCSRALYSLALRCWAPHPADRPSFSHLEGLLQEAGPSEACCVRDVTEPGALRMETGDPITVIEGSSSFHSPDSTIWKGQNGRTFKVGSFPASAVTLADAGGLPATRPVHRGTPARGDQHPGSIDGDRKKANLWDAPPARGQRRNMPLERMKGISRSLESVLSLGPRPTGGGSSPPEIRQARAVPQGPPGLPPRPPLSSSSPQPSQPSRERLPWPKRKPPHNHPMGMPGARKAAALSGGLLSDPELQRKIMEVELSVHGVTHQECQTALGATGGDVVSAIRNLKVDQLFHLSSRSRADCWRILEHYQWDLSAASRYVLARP

[5] = molecular target: T3, Receptor-type tyrosine-protein kinase FLT3 (Homo sapiens, UniProt P36888)
T3 sequence (P36888 whole entry): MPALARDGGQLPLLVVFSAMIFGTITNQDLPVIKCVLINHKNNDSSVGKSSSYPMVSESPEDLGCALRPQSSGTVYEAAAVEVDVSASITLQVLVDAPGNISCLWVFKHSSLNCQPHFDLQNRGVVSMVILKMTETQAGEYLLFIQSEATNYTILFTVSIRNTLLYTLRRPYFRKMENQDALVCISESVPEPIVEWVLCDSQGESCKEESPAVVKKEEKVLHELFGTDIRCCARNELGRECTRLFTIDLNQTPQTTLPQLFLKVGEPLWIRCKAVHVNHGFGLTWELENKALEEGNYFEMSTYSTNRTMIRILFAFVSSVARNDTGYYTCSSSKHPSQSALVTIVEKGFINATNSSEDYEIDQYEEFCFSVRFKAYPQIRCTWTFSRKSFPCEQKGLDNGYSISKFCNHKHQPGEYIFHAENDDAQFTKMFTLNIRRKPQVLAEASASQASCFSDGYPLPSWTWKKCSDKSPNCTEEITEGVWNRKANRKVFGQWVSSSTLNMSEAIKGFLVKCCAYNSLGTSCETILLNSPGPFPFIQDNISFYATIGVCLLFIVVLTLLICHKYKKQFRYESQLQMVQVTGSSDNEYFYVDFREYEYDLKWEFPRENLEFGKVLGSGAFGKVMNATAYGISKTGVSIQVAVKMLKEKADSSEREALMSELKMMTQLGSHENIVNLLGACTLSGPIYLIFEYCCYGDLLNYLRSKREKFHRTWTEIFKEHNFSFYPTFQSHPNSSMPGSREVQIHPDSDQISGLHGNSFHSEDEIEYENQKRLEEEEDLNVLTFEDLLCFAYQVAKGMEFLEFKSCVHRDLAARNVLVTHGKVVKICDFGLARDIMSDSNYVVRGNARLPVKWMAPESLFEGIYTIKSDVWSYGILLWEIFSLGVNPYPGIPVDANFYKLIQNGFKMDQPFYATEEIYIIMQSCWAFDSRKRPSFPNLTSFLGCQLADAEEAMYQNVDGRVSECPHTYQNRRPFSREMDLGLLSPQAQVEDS

STE20-like serine/threonine-protein kinase, sequence (Q9H2G2 whole entry): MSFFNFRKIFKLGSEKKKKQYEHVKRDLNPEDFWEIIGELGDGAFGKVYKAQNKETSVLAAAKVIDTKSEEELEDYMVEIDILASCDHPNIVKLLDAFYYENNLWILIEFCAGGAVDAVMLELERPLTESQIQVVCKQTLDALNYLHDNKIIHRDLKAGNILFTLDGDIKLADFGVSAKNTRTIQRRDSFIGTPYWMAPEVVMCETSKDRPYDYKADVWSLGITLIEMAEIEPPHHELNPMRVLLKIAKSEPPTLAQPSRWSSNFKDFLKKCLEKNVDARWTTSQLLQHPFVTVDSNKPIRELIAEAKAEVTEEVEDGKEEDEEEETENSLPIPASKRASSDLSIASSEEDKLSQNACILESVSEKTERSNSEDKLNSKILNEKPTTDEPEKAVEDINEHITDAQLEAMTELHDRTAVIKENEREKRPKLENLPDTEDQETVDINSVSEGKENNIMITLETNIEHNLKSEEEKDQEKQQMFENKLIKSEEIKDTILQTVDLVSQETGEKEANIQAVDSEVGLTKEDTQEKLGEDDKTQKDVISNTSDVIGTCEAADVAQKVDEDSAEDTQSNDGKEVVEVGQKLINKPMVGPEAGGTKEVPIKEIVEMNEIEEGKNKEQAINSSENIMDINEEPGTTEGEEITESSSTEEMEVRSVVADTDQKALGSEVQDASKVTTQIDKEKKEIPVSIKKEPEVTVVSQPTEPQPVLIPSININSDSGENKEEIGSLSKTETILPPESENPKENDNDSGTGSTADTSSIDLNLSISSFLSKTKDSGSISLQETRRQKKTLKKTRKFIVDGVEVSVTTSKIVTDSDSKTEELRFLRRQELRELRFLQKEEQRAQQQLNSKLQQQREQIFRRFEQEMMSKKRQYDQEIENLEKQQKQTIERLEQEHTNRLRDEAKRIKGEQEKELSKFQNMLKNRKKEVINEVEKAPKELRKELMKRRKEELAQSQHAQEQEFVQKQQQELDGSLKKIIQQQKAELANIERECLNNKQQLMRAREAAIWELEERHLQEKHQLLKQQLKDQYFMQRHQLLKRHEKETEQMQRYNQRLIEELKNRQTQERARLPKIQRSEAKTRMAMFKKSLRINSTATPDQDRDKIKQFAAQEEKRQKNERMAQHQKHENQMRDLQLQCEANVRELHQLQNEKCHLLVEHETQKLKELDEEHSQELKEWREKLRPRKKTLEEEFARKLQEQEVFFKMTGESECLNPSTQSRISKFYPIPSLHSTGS

In the case of `Cc1nc(Nc2n[nH]c3c2CN(C(=O)N[C@H](CN(C)C)c2ccccc2)C3(C)C)c2sccc2n1` [PF-03758309], the Kd [1] was > 30 µM (inactive), the Kd [2] was > 30 µM (inactive) and the Kd [3] was > 30 µM (inactive). For the same compound, the Kd [4] was > 30 µM (inactive) and the Kd [5] was 1.44 µM (active).
With `Cc1cnc(NC(=O)Nc2cc(Br)c(C)cc2OC[C@@H]2CNCCO2)cn1` [RABUSERTIB] the Kd [1] was > 30 µM (inactive), the Kd [2] was > 30 µM (inactive) and the Kd [3] was > 30 µM (inactive). For the same compound, the Kd [4] was > 30 µM (inactive) and the Kd [5] was > 30 µM (inactive).
With `CO[C@H]1C[C@@H]2CC[C@@H](C)[C@@](O)(O2)C(=O)C(=O)N2CCCC[C@H]2C(=O)O[C@H]([C@H](C)C[C@@H]2CC[C@@H](OP(C)(C)=O)[C@H](OC)C2)CC(=O)[C@H](C)/C=C(\C)[C@@H](O)[C@@H](OC)C(=O)[C@H](C)C[C@H](C)/C=C/C=C/C=C/1C` [RIDAFOROLIMUS] the Kd [1] was > 30 µM (inactive), the Kd [2] was > 30 µM (inactive) and the Kd [3] was > 30 µM (inactive). The Kd [4] was > 30 µM (inactive) and the Kd [5] was > 30 µM (inactive).
In the case of `N#CC1(c2ccc(NC(=O)c3cccnc3NCc3ccncc3)cc2)CCCC1` [RIVOCERANIB], the Kd [1] was > 30 µM (inactive), the Kd [2] was > 30 µM (inactive) and the Kd [3] was > 30 µM (inactive). For the same compound, the Kd [4] was > 30 µM (inactive) and the Kd [5] was > 30 µM (inactive).
`O=c1[nH]ccc2cc(OC3CCNCC3)ccc12` [SAR-407899 FREE BASE] was tested, and the Kd [1] was > 30 µM (inactive), the Kd [2] was > 30 µM (inactive) and the Kd [3] was > 30 µM (inactive). The Kd [4] was > 30 µM (inactive) and the Kd [5] was > 30 µM (inactive).
For `Cn1cc(-c2cnn3c(N)c(Br)c([C@@H]4CCCNC4)nc23)cn1` [SCH-900776], the Kd [1] was 2.08 µM (active), the Kd [2] was > 30 µM (inactive) and the Kd [3] was > 30 µM (inactive). The Kd [4] was > 30 µM (inactive) and the Kd [5] was > 30 µM (inactive).
With `CO[C@H]1C[C@@H]2CC[C@@H](C)[C@@](O)(O2)C(=O)C(=O)N2CCCC[C@H]2C(=O)O[C@H]([C@H](C)C[C@@H]2CC[C@@H](O)[C@H](OC)C2)CC(=O)[C@H](C)/C=C(\C)[C@@H](O)[C@@H](OC)C(=O)[C@H](C)C[C@H](C)/C=C/C=C/C=C/1C` [SIROLIMUS] the Kd [1] was > 30 µM (inactive), the Kd [2] was > 30 µM (inactive) and the Kd [3] was > 30 µM (inactive). For the same compound, the Kd [4] was > 30 µM (inactive) and the Kd [5] was > 30 µM (inactive).
`CO[C@H]1C[C@@H]2CC[C@@H](C)[C@@](O)(O2)C(=O)C(=O)N2CCCC[C@H]2C(=O)O[C@H]([C@H](C)C[C@@H]2CC[C@@H](OC(=O)C(C)(CO)CO)[C@H](OC)C2)CC(=O)[C@H](C)/C=C(\C)[C@@H](O)[C@@H](OC)C(=O)[C@H](C)C[C@H](C)/C=C/C=C/C=C/1C` [TEMSIROLIMUS] was tested, and the Kd [1] was > 30 µM (inactive), the Kd [2] was > 30 µM (inactive) and the Kd [3] was > 30 µM (inactive). The Kd [4] was > 30 µM (inactive) and the Kd [5] was > 30 µM (inactive).
In the case of `COc1cc2c(Nc3ccc(Cl)c(Cl)c3F)ncnc2cc1OC[C@@H]1C[C@@H]2CN(C)C[C@@H]2C1` [TESEVATINIB], the Kd [1] was 3.42 µM (active), the Kd [2] was > 30 µM (inactive) and the Kd [3] was > 30 µM (inactive). The Kd [4] was > 30 µM (inactive) and the Kd [5] was > 30 µM (inactive).
With `O=C(Cc1ccc(-c2ccc(OCCN3CCOCC3)cc2)cn1)NCc1ccccc1` [TIRBANIBULIN] the Kd [1] was > 30 µM (inactive), the Kd [2] was > 30 µM (inactive) and the Kd [3] was > 30 µM (inactive). For the same compound, the Kd [4] was > 30 µM (inactive) and the Kd [5] was > 30 µM (inactive).
`C[C@@H](NC(=O)c1ncnc(N)c1Cl)c1ncc(C(=O)Nc2cc(C(F)(F)F)c(Cl)cn2)s1` [TOVORAFENIB] was tested, and the Kd [1] was > 30 µM (inactive), the Kd [2] was > 30 µM (inactive) and the Kd [3] was > 30 µM (inactive). For the same compound, the Kd [4] was > 30 µM (inactive) and the Kd [5] was > 30 µM (inactive).
With `Cc1cc(Nc2ncnc3ccc(NC4=NC(C)(C)CO4)cc23)ccc1Oc1ccn2ncnc2c1` [TUCATINIB] the Kd [1] was > 30 µM (inactive), the Kd [2] was > 30 µM (inactive) and the Kd [3] was > 30 µM (inactive). For the same compound, the Kd [4] was > 30 µM (inactive) and the Kd [5] was > 30 µM (inactive).
In the case of `Cn1ncc(Cl)c1-c1cc(C(=O)N[C@H](CN)Cc2ccc(F)c(F)c2)oc1Cl` [UPROSERTIB], the Kd [1] was > 30 µM (inactive), the Kd [2] was > 30 µM (inactive) and the Kd [3] was > 30 µM (inactive). The Kd [4] was > 30 µM (inactive) and the Kd [5] was > 30 µM (inactive).
With `CC(C)c1cc(CNc2nc(Nc3cc(C4CC4)[nH]n3)cc(N3CCN(C)CC3)n2)on1` [XL-228] the Kd [1] was 0.138 µM (active), the Kd [2] was > 30 µM (inactive) and the Kd [3] was > 30 µM (inactive). For the same compound, the Kd [4] was 0.003 µM (active) and the Kd [5] was 0.005 µM (active).
For `C[C@@H](N)c1ccc(C(=O)Nc2ccnc3[nH]ccc23)cc1` [Y-39983], the Kd [1] was > 30 µM (inactive), the Kd [2] was > 30 µM (inactive) and the Kd [3] was > 30 µM (inactive). For the same compound, the Kd [4] was > 30 µM (inactive) and the Kd [5] was > 30 µM (inactive).
In the case of `CN1C/C=C/CCOc2cccc(c2)-c2ccnc(n2)Nc2cccc(c2)C1` [ZOTIRACICLIB], the Kd [1] was 6.37 µM (active), the Kd [2] was > 30 µM (inactive) and the Kd [3] was > 30 µM (inactive). For the same compound, the Kd [4] was > 30 µM (inactive) and the pKd [5] was 6.38.
